Values joined by “and” are separate entries in the source; they are usually repeats but may differ in a detail not shown here. Identical values can stand only once.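 Five concentrations, 48 hours, 96-well plates. The concentration for 50% growth inhibition is given as GI50. At the TGI there is no net growth.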 *1 amine or outer side, *2 acyl side, *3 side chain or, on linkers, in order; H or OH if unused. Where a SMILES comes first, the peptide text is derived from it. Bridges are numbered along the chain shown (N, C = ends). Roman numbers before positions name the chains, in order. [ ]: non-standard residue; d: D form. Actinocin(9to1) = Cc1c2oc3c(C)ccc(C(=O)[*:1])c3nc-2c(C(=O)[*:2])c(N)c1=O; NMeV = CN[CH](C(=O)O)C(C)C; Sar = CNCC(=O)O
Columns and labels:
Experiment in all cases: DTP human tumour cell line panel, 48 h
[1] = system: COLO 205 colon
[2] = system: UACC-62 melanoma
[3] = system: MDA-MB-435
[4] = system: U251 CNS
[5] = system: LOX IMVI melanoma
[6] = system: DU-145 prostate
[7] = system: UO-31 renal
[8] = system: CAKI-1 renal
[9] = system: HS 578T breast
[10] = system: M14 melanoma

Row | Structure (SMILES) | GI50 [1] | TGI [1] | GI50 [2] | TGI [2] | GI50 [3] | TGI [3] | GI50 [4] | TGI [4] | GI50 [5] | TGI [5] | GI50 [6] | TGI [6] | GI50 [7] | TGI [7] | GI50 [8] | TGI [8] | GI50 [9] | TGI [9] | GI50 [10] | TGI [10]
1 | O=C1NCN(c2ccccc2)C12CCN(CCCC(c1ccc(F)cc1)c1ccc(F)cc1)CC2 | 1.72 µM | 3.24 µM | 1.68 µM | 3.15 µM | 1.75 µM | 3.77 µM | 1.55 µM | 2.91 µM | 1.8 µM | 3.32 µM | 3.25 µM | 11.2 µM | 1.28 µM | 3.96 µM | 2.51 µM | 7.44 µM | 2.17 µM | 6.51 µM | 1.67 µM | 3.18 µM
2 | O=C1CSC(c2ccc(-c3nc4ccccc4[nH]3)cc2)=N1 | > 50 µM | > 50 µM | 12.5 µM | > 50 µM | 32.5 µM | > 50 µM | 17.4 µM | > 50 µM | 15.7 µM | > 50 µM | 31.4 µM | > 50 µM | 19.8 µM | > 50 µM | > 50 µM | > 50 µM | 25.1 µM | > 50 µM | 19.7 µM | > 50 µM
3 | COC1CC(C)C(OC)c2cc(O)cc(c2O)NC(=O)/C(C)=C/C=C\C(C)C(OC(N)=O)/C(C)=C\C(C)C1OC (stereo unspecified) | 0.0414 µM and 0.0785 µM | 7.12 µM and 2.8 µM | 0.162 µM | 8.89 µM and 5.83 µM | – | 32.2 µM and 6.1 µM | 0.614 µM | 16.1 µM and 23.6 µM | 0.165 µM and 0.255 µM | 1.74 µM and 6.91 µM | 1.59 µM | 22.4 µM and 8.94 µM | 8.32 µM | 17.4 µM and 15.6 µM | 6.93 µM and 7.45 µM | 16.3 µM and 14.4 µM | 0.511 µM and 0.758 µM | 20.8 µM and 6.92 µM | 0.267 µM and 1.27 µM | 18.7 µM and 10.5 µM
4 | Cc1c2oc3c(C)ccc(C(=O)OC(C)C4NC(=O)C(C(C)C)N(C)C(=O)CN(C)C(=O)C5CCCN5C(=O)C(C(C)C)NC4=O)c3nc-2c(C(=O)OC(C)C2NC(=O)C(C(C)C)N(C)C(=O)CN(C)C(=O)C3CCCN3C(=O)C(C(C)C)NC2=O)c(N)c1=O (stereo unspecified) (I: cyclo([Sar][NMeV]TVP) / II: cyclo([Sar][NMeV]TVP); linker I:3-II:3 via Actinocin(9to1); configuration not given here) | < 0.01 µM | 0.0163 µM | < 0.01 µM | 0.0125 µM | < 0.01 µM | 0.0247 µM | < 0.01 µM | – | < 0.01 µM | > 35 µM | < 0.0107 µM | > 30.7 µM | 0.0302 µM | 0.206 µM | 0.0596 µM | – | 0.0192 µM | – | 0.0117 µM | 0.0517 µM
5 | COc1cccc(OC(=O)c2ccc(C(F)(F)F)nc2Nc2c(C)cccc2Cl)c1 | 22.6 µM | > 100 µM | 17.3 µM | 39.4 µM | 35 µM | > 100 µM | 19.1 µM | 40.6 µM | 20 µM | 64.8 µM | 32.1 µM | > 100 µM | 15.1 µM | 32 µM | 16.3 µM | 48.8 µM | 24.7 µM | 94.6 µM | 38.9 µM | > 100 µM
6 | Oc1[nH]c(N=C2N=c3ccccc3=N2)c2ccccc12 | 6.39 µM | 20.5 µM | 11.8 µM | 36 µM | 12.4 µM | 69.4 µM | 3.4 µM | 42.3 µM | 4.78 µM | 24.9 µM | 10.3 µM | 22.6 µM | 4.58 µM | 18.6 µM | 2.95 µM | 21.7 µM | 10.7 µM | 39.8 µM | 12.2 µM | 38.8 µM

From PubChem BioAssay (NCI)
